In PubChem BioAssay AID2305 (GlaxoSmithKline (GSK), 2010) one finds IC50 data, which are given here for 60 compounds.

SMILES strings stand for the structures.

For this assay, the system named is P. falciparum 3D7 growth, pLDH absorbance. As to the kind of experiment: blood-stage malaria parasite growth potency – strain 3D7, dose response (AID 2305).
Turning to `O=[N+]([O-])c1cccc(CNCC2CCN(CCc3ccccc3)CC2)c1`, the IC50 amounted to 780 nM. On to `O=C(Nc1ccc(Br)cc1)N(CCN1CCOCC1)CC(O)COCc1ccc(F)cc1` (stereo not given), for which the IC50 turned out to be 1040 nM. In the case of `O=C(c1cccs1)N1N=C(c2cccs2)CC1c1cccc([N+](=O)[O-])c1` (stereo not given) it was 820 nM; in that of `CN(C)CCN(C)Cc1cccc(-c2ccc3c(Nc4ccc(F)cc4Cl)ccnc3c2)c1`, 110 nM.

`CCc1cn2c3c(cc(C(=O)N[C@@H](Cc4cccc(F)c4)[C@H](O)CNC4CCCCC4)cc13)N(C)S(=O)(=O)CC2` yielded an IC50 of 30 nM. As for `O=C1OC(c2cc3ccccc3n2S(=O)(=O)c2ccccc2)(c2cc3ccccc3n2S(=O)(=O)c2ccccc2)c2ccccc21`, the figure is 850 nM; as for `c1cc(CN2CCCCC2)cc(-c2csc(-c3nc4ccccc4[nH]3)c2)c1`, 850 nM. In the case of `Cc1cccc2[nH]c(-c3cccc(-c4ccc(NC(=O)C5CCN(C)CC5)cc4)c3)nc12` it was 830 nM.

Take `COCCN1CCC(N(CC2(O)CCN(c3ccc(C(F)(F)F)cc3)CC2)C(=O)Cn2c(SCc3cccc(F)c3F)cc(=O)c3ccccc32)CC1`: the IC50 stood at 810 nM. As for `O=C(NC1CCN(CCN2CCC(c3c[nH]c4ccccc34)CC2)CC1)c1ccc(-c2ccc(C(F)(F)F)cc2)cc1`, the figure is 200 nM; as for `Nc1ccc(-c2csc(Nc3ccncc3)n2)cc1`, 940 nM; as for `CN(C)CCNc1nccc(N2CCc3ncnc(Nc4ccc(OCc5cccc(F)c5)c(Cl)c4)c3C2)n1`, 140 nM. In the case of `CN1CCN(c2ccnc3cc4ccccc4cc23)CC1` it was 950 nM. In the case of `CN1CCCN(Cc2ccc(-c3cccc(NC(=O)c4cccc(Cl)c4)c3)cc2)CC1` it was 840 nM; in that of `CCN(CC)c1ccc(C=CC(=O)NCCN2CCC(N(C)C3CCCCC3C)CC2)cc1` (stereo not given), 960 nM. On to `COc1ccc(NC(=O)c2ccc(-c3nc(-c4cccc(C(F)(F)F)c4)cs3)cc2)cc1N1CCN(C)CC1`, for which the IC50 is 820 nM. As for `COc1ccc(-c2ccc(NC(=O)c3ccc(F)cc3)cc2)cc1CN1CCCN(C)CC1`, the figure is 660 nM; as for `COc1ccc(Nc2nccc(N3CCC(NC(=O)C(C)c4ccc(Cl)cc4)C3)n2)cc1` (stereo not given), 1010 nM; as for `Cc1cnc(-c2ccc(NC(=O)N3CCc4cc5nccc(N6CCN7CCC[C@H]7C6)c5cc43)c3ccccc23)o1`, 860 nM. As to `O=C(NC1CCN(Cc2ccccc2)CC1)c1cc(-c2ccncc2)c(-c2ccc(Cl)c(O)c2)o1`, the IC50 came to 410 nM. On to `CC12CN3CC(C)(CN(C1)C3c1cc(Br)ccc1O)C2O` (stereo not given), for which the IC50 was 230 nM.

As for `Cc1ccc(-c2nc3ccc(C(=O)NC4CCC(N5CCCc6ccc(C#N)cc6C5)CC4)cc3[nH]2)cc1` (stereo not given), the IC50 was determined as 1360 nM. As for `COc1ccc(C2c3cc(OC)c(OC)cc3C(=NO)C2C)cc1OC` (stereo not given), the figure is 1170 nM; as for `CC(CN1CCN(C)CC1)C(=O)Nc1ccc(-c2cccc(-c3nc4ccc(C(F)(F)F)cc4[nH]3)c2)cc1` (stereo not given), 400 nM; as for `Cc1cc(=O)c2cc(Oc3ccc(OC(F)(F)F)cc3)ccc2[nH]1`, 990 nM. As for `CCc1c[nH]c2c(N3CCCC3=O)cc(C(=O)N[C@@H](Cc3ccccc3)[C@H](O)CNC3CCCCC3)cc12`, the figure is 100 nM; as for `CN1CCN(CCNc2c3ccccc3nc3ccc4ccccc4c23)CC1`, 530 nM.

In turn, `NC(N)=NC(=O)Nc1cc(F)c(Cl)c(Cl)c1` gave an IC50 of 500 nM. In the case of `COc1cc(OC)c(NC(=O)COc2ccc(C)cc2)cc1Cl` it was 690 nM. As for `O=C(Cc1cnc[nH]1)Nc1cccc(-c2ccc(-c3nc4ccc(C(F)(F)F)cc4[nH]3)cc2)c1`, the figure is 700 nM; as for `COc1ccc(CNc2ncc(-c3ccsc3)c(-c3nccs3)n2)cc1OC`, 90 nM. As for `O=C(Nc1ccc(Cl)cc1)c1ccc(CN2CCCN(Cc3cccc(Cl)c3)CC2)cc1`, the figure is 830 nM; as for `COc1ccc2nccc(N3CCC(NCCNCc4ccc5c(n4)NC(=O)CS5)C3)c2n1` (stereo not given), 690 nM. `O=C1COc2ccccc2N1C/C=C(\CN1CCC(c2ccccc2)CC1)c1cc(Cl)cc(Cl)c1` gave an IC50 of 210 nM. In the case of `COc1ccc(-c2cccc(NC(=O)c3cccc(C#N)c3)c2)cc1CN(C)CCO` it was 820 nM; in that of `O=C(/C=C/c1ccc(Cl)c(Cl)c1)NCCCCCN1CCC(NC(=O)Nc2cccc(Cl)c2Cl)CC1`, 670 nM; in that of `COc1cc(C2Nc3ccc4ccccc4c3C3=C2C(=O)CC(C)(C)C3)ccc1Oc1ccc([N+](=O)[O-])cc1C#N` (stereo not given), 660 nM. As for `O=C(Nc1ccc(-c2nc3ccccc3[nH]2)cc1)c1ccc(N2CCCC2)c([N+](=O)[O-])c1`, the figure is 680 nM; as for `O=C(Nc1cccc(N2CCC(NCCCn3ccnc3)CC2)c1)c1cccc(C(F)(F)F)c1`, 1110 nM. In the case of `O=C(/C=C/c1ccc(Cl)c(Cl)c1)N1CCC(CN2CCC(c3cn(CC(=O)N4CCCCC4)c4ccccc34)CC2)CC1` it was 750 nM. Compound `COc1ccc(S(=O)(=O)N(CCCN2CCN(C)CC2)Cc2csc(-c3ccc(CNCc4ccccc4)cc3)n2)cc1` registered an IC50 of 950 nM. For the compound `O=C(Nc1cccc(-c2csc(-c3nc4ccccc4[nH]3)c2)c1)c1ccoc1`, the IC50 is 210 nM. Compound `CC(C)C(=O)Nc1c(F)cc(F)cc1CCc1ccc(O)cc1` had an IC50 of 500 nM. In the case of `Cn1nccc1C(=O)NCCNCc1cccc(-c2ccc(-c3nc4ccccc4[nH]3)s2)c1` it was 300 nM; in that of `COCCCNc1nc2cc(OC)c(OC)cc2c2nc(-c3ccccc3)nn12`, 190 nM.

The compound `CCCCCN1CCCC1CNS(=O)(=O)c1ccc(C(=O)Nc2cccc(C(F)(F)F)c2)cc1` (stereo not given) yielded an IC50 of 1060 nM. As for `CC(C)CCNC(=O)[C@@H]1[C@H]2C(=O)N(C3CCCCC3)C(=O)[C@H]2[C@H]2C=C[C@@H]3C(c4ccc(C(C)(C)C)cc4)=NO[C@@H]3N21`, the figure is 790 nM; as for `N#Cc1ccc(N(CCOc2ccc(Cl)c(Cl)c2)Cc2ccccc2C(F)(F)F)cc1C(F)(F)F`, 1110 nM; as for `COc1ccccc1C(C)NCC(=O)Nc1cc(C(F)(F)F)ccc1Cl` (stereo not given), 780 nM. In the case of `FC(F)(F)c1ccc2nc(-c3ccc(-c4cccc(CN5CCC(CCN6CCCCC6)CC5)c4)cc3)[nH]c2c1` it was 150 nM. `COCc1ccccc1C(=O)NCCOc1cc(C)cc(C)c1`: the IC50 worked out at 350 nM. As for `O=C(Nc1cc(Cl)cc(Cl)c1)c1cc(Cl)c(=O)n(Cc2ccc(Cl)cc2)c1`, the figure is 860 nM; as for `O=S(=O)(/C=C/c1ccccc1)N(Cc1ccc(-c2ccc(CNCCc3ccccc3)cc2)cc1)CC1CCCCN1` (stereo not given), 790 nM. In the case of `COc1ccccc1NC(=O)c1cc(C(=O)c2cc(Cl)ccc2O)cn(-c2ccccc2OC)c1=O` it was 940 nM. With `COc1ccc(F)cc1-c1ccc(C(=O)N2CCCN(c3ccc(C#N)cn3)CC2)cc1`, the IC50 came to 110 nM.

With `CCOC(=O)CCCc1cc(NC2CCN(C)CC2)nc(Nc2ccc(C)cc2)n1`, the IC50 turned out to be 260 nM.

On to `CCN(CC)CCCNc1ncc2c(-c3ccc(NC(=O)Nc4cc(C(F)(F)F)ccc4F)c(F)c3)nn(C)c2n1`, for which the IC50 was found to be 270 nM. In the case of `COc1cccc(C(=O)N2CCN(Cc3cccc(NC(=O)c4cccs4)c3)CC2)c1` it was 480 nM. In the case of `O=C(/C=C/c1ccc(Cl)c(Cl)c1)N1CC[C@H]2C[C@H](N3CCC(c4c[nH]c5ccccc45)CC3)CC[C@@H]2C1` it was 170 nM. As for `CN(C)C(CNC(=O)c1cc(-c2ccncc2)c(-c2cc3ccccc3[nH]2)o1)c1ccccc1` (stereo not given), the figure is 840 nM.
